Data: the supplement of paper PMC10307832

How the values were obtained:
Assay in all cases: relative viability (nuclei count vs DMSO), 5 days (fraction); higher = more cells survive
AZ505 + Phenformin = compound: C1CCC(CC1)N(CCNCCC2=C3C(=C(C=C2)O)NC(=O)CO3)C(=O)CCNCCC4=CC(=C(C=C4)Cl)Cl [AZ505] + N=C(N)NC(=N)NCCc1ccccc1 [Phenformin] (partner 250 µM)
How it was run: (§1)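 Lung cancer cell lines, seeded in 1536-well plates, were treated the following day by pin tool with a single drug or with five library-drug doses (not always all listed) in √10 steps on top of a fixed anchor-drug dose. Cells were fixed and nuclei stained in one step after 5 days, and nuclei were counted. Relative viability is the nuclei count for treated wells divided by that for vehicle wells, reported as medians of duplicate plates.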

Dactolisib + Vorinostat = compound: Cn1c(=O)n(-c2ccc(C(C)(C)C#N)cc2)c2c3cc(-c4cnc5ccccc5c4)ccc3ncc21 [Dactolisib] + O=C(CCCCCCC(=O)Nc1ccccc1)NO [Vorinostat] (partner 1 µM)
How it was run: as §1

AZ505 + Alpelisib = compound: C1CCC(CC1)N(CCNCCC2=C3C(=C(C=C2)O)NC(=O)CO3)C(=O)CCNCCC4=CC(=C(C=C4)Cl)Cl [AZ505] + Cc1nc(NC(=O)N2CCC[C@H]2C(N)=O)sc1-c1ccnc(C(C)(C)C(F)(F)F)c1 [Alpelisib] (partner 2 µM)
How it was run: as §1

AZ505 + Trametinib = compound: C1CCC(CC1)N(CCNCCC2=C3C(=C(C=C2)O)NC(=O)CO3)C(=O)CCNCCC4=CC(=C(C=C4)Cl)Cl [AZ505] + CC(=O)Nc1cccc(-n2c(=O)n(C3CC3)c(=O)c3c(Nc4ccc(I)cc4F)n(C)c(=O)c(C)c32)c1 [Trametinib] (partner 0.02 µM)
How it was run: as §1

Cell Line	relative viability (AZ505 + Phenformin; first compound 0.08 µM)	relative viability (AZ505 + Phenformin; first compound 0.253 µM)	relative viability (AZ505 + Phenformin; first compound 0.8 µM)	relative viability (AZ505 + Phenformin; first compound 2.53 µM)	relative viability (AZ505 + Phenformin; first compound 8 µM)	relative viability (Dactolisib + Vorinostat; first compound 0.002 µM)	relative viability (Dactolisib + Vorinostat; first compound 0.006325 µM)	relative viability (Dactolisib + Vorinostat; first compound 0.02 µM)	relative viability (Dactolisib + Vorinostat; first compound 0.06325 µM)	relative viability (Dactolisib + Vorinostat; first compound 0.2 µM)	relative viability (AZ505 + Alpelisib; first compound 0.08 µM)	relative viability (AZ505 + Alpelisib; first compound 0.253 µM)	relative viability (AZ505 + Alpelisib; first compound 0.8 µM)	relative viability (AZ505 + Alpelisib; first compound 2.53 µM)	relative viability (AZ505 + Alpelisib; first compound 8 µM)	relative viability (AZ505 + Trametinib; first compound 0.08 µM)	relative viability (AZ505 + Trametinib; first compound 0.253 µM)	relative viability (AZ505 + Trametinib; first compound 0.8 µM)	relative viability (AZ505 + Trametinib; first compound 2.53 µM)	relative viability (AZ505 + Trametinib; first compound 8 µM)
201T	0.446	0.445	0.501	0.468	0.477	0.987	0.981	0.976	0.622	0.729	0.942	1.01	0.973	1.04	1.05	0.688	0.716	0.722	0.705	0.711
A549	0.15	0.19	0.145	0.113	0.166						0.796	0.666	0.872	0.79	0.795					
A-427	0.309	0.255	0.327	0.395	0.298	0.894	0.864	0.834	0.706	0.647	1.08	1.11	1.04	1.01	1.08	0.705	0.776	0.631	0.738	0.743
ABC-1	0.196	0.211	0.242	0.252	0.219	1.19	1.34	0.94	0.824	0.529	0.881	1.01	1.1	1.26	1.02					
BEN	0.24	0.239	0.293	0.262	0.286	0.555	0.577	0.562	0.478	0.383	0.947	1.01	0.959	1.02	1.2	0.971	1.08	0.972	1	1.08
CAL-12T	0.473	0.531	0.553	0.525	0.649	0.798	0.913	0.722	0.209	0.199	1.05	1.23	1.23	1.24	1.33	0.335	0.414	0.312	0.36	0.337
COR-L23	0.446	0.463	0.383	0.442	0.441	0.367	0.363	0.277	0.157	0.161	0.532	0.646	0.463	0.624	0.598	0.45	0.516	0.519	0.534	0.482
COR-L 105	0.451	0.454	0.547	0.473	0.583	0.677	0.88	0.828	0.402	0.394	0.897	1.06	1.02	0.954	0.954	0.403	0.452	0.446	0.428	0.476
Calu-6											0.842	1.07	0.934	0.937	0.962					
ChaGo-K-1	0.486	0.521	0.5	0.514	0.458	0.724	0.821	0.719	0.623	0.757						0.838	0.918	0.871	0.846	0.91
EBC-1											0.815	0.806	0.893	0.857	0.66					
EKVX	0.21	0.245	0.238	0.198	0.251	0.794	0.72	0.657	0.359	0.273	0.896	1.04	0.896	0.899	1.01		0.326	0.321	0.414	0.397
EMC-BAC-2	0.497	0.593	0.496	0.508	0.487	0.492	0.442	0.353	0.266	0.219	0.718	0.759	0.696	0.761	0.831	0.83		0.876	0.82	0.902
EPLC-272H		0.283	0.304	0.241	0.324	0.571	0.409	0.261	0.36	0.159	0.76	0.719	0.679	0.789	0.958	0.308	0.292	0.307	0.277	0.269
H3255	0.303	0.377	0.379	0.321	0.38	0.936	0.783	0.706	0.811	0.594	0.62	0.8	0.715	0.705	0.813		0.604	0.543	0.578	0.611
HARA	0.389	0.422	0.42	0.343	0.408	0.578	0.461	0.523	0.41	0.11	0.704	0.641	0.582	0.512	0.494	0.454		0.62	0.504	0.71
HCC-15	0.411	0.476	0.474	0.415	0.446	0.961	0.786	0.85	0.498	0.373	0.773	0.926	0.918	0.809	0.933	0.278	0.391	0.341	0.366	0.372
HCC-44	0.144		0.294	0.247	0.207	1.12	1.14	1.21	1.14	0.885	0.734	0.751	0.75	0.901	0.869	1.03	1.09	1.02	1.05	1.1
HCC-78	0.531	0.611	0.707	0.731	0.728	0.33	0.431	0.415	0.367	0.303		0.515	0.306	0.411	0.462			0.594	0.701	0.653
HCC-366	0.577	0.632	0.572	0.56	0.582	0.285	0.407	0.325	0.0887	0.0549	0.306	0.379	0.326	0.411	0.385	0.288	0.331	0.281	0.289	0.332

Cell Line	relative viability (AZ505 + Phenformin; first compound 0.08 µM)	relative viability (AZ505 + Phenformin; first compound 0.253 µM)	relative viability (AZ505 + Phenformin; first compound 0.8 µM)	relative viability (AZ505 + Phenformin; first compound 2.53 µM)	relative viability (AZ505 + Phenformin; first compound 8 µM)	relative viability (Dactolisib + Vorinostat; first compound 0.002 µM)	relative viability (Dactolisib + Vorinostat; first compound 0.006325 µM)	relative viability (Dactolisib + Vorinostat; first compound 0.02 µM)	relative viability (Dactolisib + Vorinostat; first compound 0.06325 µM)	relative viability (Dactolisib + Vorinostat; first compound 0.2 µM)	relative viability (AZ505 + Alpelisib; first compound 0.08 µM)	relative viability (AZ505 + Alpelisib; first compound 0.253 µM)	relative viability (AZ505 + Alpelisib; first compound 0.8 µM)	relative viability (AZ505 + Alpelisib; first compound 2.53 µM)	relative viability (AZ505 + Alpelisib; first compound 8 µM)	relative viability (AZ505 + Trametinib; first compound 0.08 µM)	relative viability (AZ505 + Trametinib; first compound 0.253 µM)	relative viability (AZ505 + Trametinib; first compound 0.8 µM)	relative viability (AZ505 + Trametinib; first compound 2.53 µM)	relative viability (AZ505 + Trametinib; first compound 8 µM)
HCC-827	0.401	0.427	0.453	0.44	0.425	0.966	0.934	0.785	0.498	0.82	0.921	0.997	0.87	0.947	1.06	0.548	0.577	0.501	0.501	0.533
HOP-62	0.63	0.797	0.67	0.725	0.784	0.572	0.541	0.543	0.177	0.219	0.94	1.17	0.889	0.844	1.04	0.371	0.326	0.333	0.382	0.32
IA-LM						1	0.903	0.817	0.426	0.267	0.793	1.05	0.925	0.723	1					
LC-2-ad	0.561	0.538	0.572	0.64	0.579	0.857	0.699	0.749	0.524	0.496	0.774	0.797	0.832	0.957	0.877	0.844	0.885	0.894	0.889	0.947
LCLC-97TM1	0.386	0.445	0.416	0.428	0.462	0.615	0.655	0.612	0.251	0.311	0.327	0.333	0.26	0.247	0.363	0.208	0.156	0.166		0.191
LCLC-103H	0.321	0.292	0.318	0.381	0.378	0.82	0.863	0.719	0.443	0.412	0.853	0.818	0.977	0.848	0.957	0.714	0.625	0.604	0.669	0.69
LK-2	0.387	0.43	0.514	0.713	0.427	0.317	0.247	0.294	0.239	0.213	0.968	0.923	1.29	1.13	1.16	0.661	0.687	0.718	0.865	0.865
LOU-NH91	0.685	0.684	0.604	0.805	0.729	0.903	0.898	0.784	0.524	0.529	0.622	0.636	0.611	0.631	0.742	0.772	0.77	0.76	0.798	0.765
LU99A		0.741	0.987	0.715	0.853	0.417	0.368	0.407	0.246	0.162	0.55	0.519	0.618	0.478	0.493	0.518	0.51	0.531		0.498
LXF-289	0.488	0.491	0.512	0.509	0.514	0.879	0.789	0.741	0.815	0.565	0.983		1.02	1.06	1.01	0.632	0.629	0.66	0.678	0.665
NCI-H522	0.526	0.521	0.61	0.732	0.626	0.861	0.833	0.79	0.822	0.657						0.71	0.726	0.945	0.842	0.8
NCI-H1299											0.986	1.06	1.01	0.978	0.998					
NCI-H1563	0.626	0.646	0.696	0.664	0.666						0.932	0.911	0.873	0.886	0.915					
NCI-H1623	0.54	0.504	0.621	0.509	0.629															
NCI-H1648						0.506	0.421	0.654	0.435	0.203							0.463	0.528	0.576	0.497
NCI-H1650	0.429	0.4	0.423	0.405	0.463	0.47	0.508	0.504	0.32	0.264						0.48	0.686	0.71	0.556	0.626
NCI-H1703											0.292	0.372	0.414	0.341	0.369					
NCI-H1792	0.302		0.31	0.417	0.263						0.719	0.769	0.66	0.701	0.642	0.426	0.426	0.482	0.422	0.435
NCI-H2342	0.573	0.559	0.733	0.697	0.677	0.656	0.832	0.698	0.75	0.568						0.668	0.789	1.01	0.752	1.01
SW 900	0.618	0.522	0.588	0.695	0.647	0.478	0.443	0.434	0.216	0.24						0.554	0.846	0.682	0.72	0.813
